From patent publication US20060292158A1, “Method for the treatment of cancer using a novel pharmaceutical composition containing at least one dolastatin 10 derivative” (priority 2004, published 2006)
Where a name gives a salt, the structure may show the parent alone. Read-outs that look alike come from different tables or passages of the source.

Experiments:
[1] = Maximum tolerated dose (neither lethality nor more than 20% body weight loss) in mice; settings: BALB/c nu/nu (athymic nude), mouse, in vivo, dose with neither lethality nor more than 20% body weight loss; for MTD at 14 days: oral
Source text: The in vivo evaluation procedure for anticancer drugs was based on the methods described by Plowman, et al. (1997) for xenograft models. See, “Anticancer Drug Development Guide: Preclinical Screening, Clinical Trials, and Approval, Teicher B (ed) pp. 101-125, specifically Chap. 6, “Human Tumor Xenograft Models in NCI Drug Development”, hereby incorporated by reference.
See, “Anticancer Drug Development Guide: Preclinical Screening, Clinical Trials, and Approval, Teicher B (ed) pp. 101-125, specifically Chap. 6, “Human Tumor Xenograft Models in NCI Drug Development”, hereby incorporated by reference.
The in vivo evaluation procedure for anticancer drugs was based on the methods described by Plowman, et al. (1997) for xenograft models. See, “Anticancer Drug Development Guide: Preclinical Screening, Clinical Trials, and Approval, Teicher B (ed) pp. 101-125, specifically Chap.

[2] = system: HT-29 human colorectal adenocarcinoma xenograft; type: in vivo; settings: day 31
Protocol: The HT-29 human colorectal adenocarcinoma cell line was purchased from American Type Culture Collection (Rockville, MD, U.S.A.). The cells were cultured in McCoy's 5a medium (Sigma-Aldrich Corporation, MO, U.S.A.) supplemented with 10% (v/v) fetal bovine serum (Roche Diagnostics KK, Tokyo, Japan).
Sixty of 5-week-old male athymic nude mice (BALB/c nu/nu) were purchased from Charles River Japan, Inc. (Yokohama, Japan). All mice were kept for 9 days in the animal facility of Kamakura Research Laboratories of Chugai Pharmaceutical Co., Ltd. before subjection to the experiment.
Capecitabine was dissolved by the 40 milli mol/L citrate buffered-5% Gum arabic solution (pH 6.0; Chugai Pharmaceutical Co., Ltd.).
The in vivo evaluation procedure for anticancer drugs was based on the methods described by Plowman, et al. (1997) for xenograft models. See, “Anticancer Drug Development Guide: Preclinical Screening, Clinical Trials, and Approval, Teicher B (ed) pp. 101-125, specifically Chap. 6, “Human Tumor Xenograft Models in NCI Drug Development”, hereby incorporated by reference. A single cell suspension of HT-29 (1.1×10^7 cells per mouse) was inoculated subcutaneously into the right flank of each mouse. The tumor volume was estimated by using the equation ab^2/2, where a and b represent tumor length and width, respectively. Mice bearing tumors of between 172 and 282 mm^3 were selected on day 10 after tumor inoculation and were randomly divided into 7 groups, consisting of 6 mice each. Mean tumor volume and body weight of the selected mice were 217 mm^3 and 25.0 g respectively. Drug administration was initiated after mice were divided into groups. […] Capecitabine (359 mg/kg or 539 mg/kg) and its vehicle were administered orally. Tumor volume and body weight of each mouse were measured twice a week. […] Tumor growth inhibition was calculated using the equation (1-ΔT/ΔC)×100, where ΔT represents the difference in tumor volume from the initial treatment date of the treated group and ΔC represents the difference in tumor volume from the initial treatment date of the vehicle group.

[3] = system: NCI-H460 human large cell lung carcinoma xenograft; experiment: Antitumor activity in NCI-H460 subcutaneous xenograft in athymic nude mice, combination with cisplatin (Example 4); type: in vivo; settings: day 12
Protocol: The NCI-H460 human large cell lung carcinoma cell line was purchased from American Type Culture Collection (MD, U.S.A.). The cells were cultured in RPMI-1640 medium (cat. # R8758, lot 12K2310, exp 01/03; lot 82K2497, exp 08/03; Sigma-Aldrich corporation, MO, U.S.A.) supplemented with 10% (v/v) fetal bovine serum (cat. # 047115, lot # 31300124; Roche Diagnostics KK, Tokyo, Japan).
Sixty of 5-week-old male athymic nude mice (BALB/c nu/nu) were purchased from Charles River Japan, Inc. (Yokohama, Japan). All mice were kept for 8 days in the animal facility of Kamakura Research Laboratories of Chugai Pharmaceutical Co., Ltd. before subjection to the experiment.
(§1) The title compound was synthesized at Kamakura Research Laboratories of Chugai Pharmaceutical Co., Ltd. CDDP (Randa™, lot # 924150) was obtained from Nippon Kayaku Co., Ltd. (Tokyo, Japan). The title compound was dissolved in dimethyl sulfoxide (DMSO) and diluted into 2.5 % DMSO solution with saline (for Injection; Ohtsuka Pharmaceutical Industry Co., Ltd., Tokushima, Japan) at the date of administration. CDDP was diluted with saline at the date of administration.
The in vivo evaluation procedure for anticancer drugs was based on the methods described by Plowman, et al. (1997) for xenograft models. See, “Anticancer Drug Development Guide: Preclinical Screening, Clinical Trials, and Approval, Teicher B (ed) pp. 101-125, specifically Chap. 6, “Human Tumor Xenograft Models in NCI Drug Development”, hereby incorporated by reference. A single cell suspension of NCI-H460 (5.6×10^6 cells per mouse) was inoculated subcutaneously into the right flank of each mouse. The tumor volume was estimated by using the equation ab^2/2, where a and b represent tumor length and width, respectively. Mice bearing tumors of between 150 and 245 mm^3 were selected on day 7 after tumor inoculation and were randomly divided into 8 groups, consisting of 5 mice each. Mean tumor volume and body weight of the selected mice were 187 mm3 and 24.3 g, respectively. Drug administration was initiated after mice were divided into groups. The title compound (2 mg/kg or 3 mg/kg), CDDP (5 mg/kg or 6.7 mg/kg) and each vehicle were administered intravenously. Tumor volume and body weight of each mouse were measured twice a week. […] Tumor growth inhibition was calculated using the equation (1-ΔT/ΔC)×100, where ΔT represents the difference in tumor volume from the initial treatment date of the treated group and ΔC represents the difference in tumor volume from the initial treatment date of the vehicle group.

[4] = system: Calu-6 human lung cancer xenograft; type: in vivo; settings: 80 mg/kg (2/3 MTD) i.v. weekly x2; day 32
Protocol: The Calu-6 human lung carcinoma cell line was purchased from American Type Culture Collection (MD, U.S.A.). The cells were cultured in Eagle's MEM (Sigma-Aldrich corporation, MO, U.S.A.) supplemented with 0.1 milli mol/L Non-essential amino acids (Invitrogen corporation, CA, U.S.A.), 1 milli mol/L sodium pyruvate (Invitrogen corporation, CA, U.S.A.), and 10% (v/v) fetal bovine serum (Roche Diagnostics KK, Tokyo, Japan).
60 of 5-week-old male athymic nude mice (BALB/c nu/nu) were purchased from Charles River Japan, Inc. (Yokohama, Japan). All mice were kept for 8 days in the animal facility of Kamakura Research Laboratories of Chugai Pharmaceutical Co., Ltd. before subjection to the experiment.
as §1, with “Irinotecan (Topotecin™, lot. No. EQAZF13)” for “CDDP (Randa™, lot # 924150)”, “Daiichi Pharmaceutical” for “Nippon Kayaku”, “(For” for “(for”, “Irinotecan” for “CDDP”
The in vivo evaluation procedure for anticancer drugs was based on the methods described by Plowman, et al. (1997) for xenograft models. See, “Anticancer Drug Development Guide: Preclinical Screening, Clinical Trials, and Approval, Teicher B (ed) pp. 101-125, specifically Chap. 6, “Human Tumor Xenograft Models in NCI Drug Development”, hereby incorporated by reference. A single cell suspension of Calu-6 (5.7×10^6 cells per mouse) was inoculated subcutaneously into the right flank of each mouse. The tumor volume was estimated by using the equation ab^2/2, where a and b represent tumor length and width, respectively. Mice bearing tumors of between 181 and 326 mm^3 were selected on day 11 after tumor inoculation and were randomly divided into 10 groups, consisting of 5 mice each. […] Drug administration was initiated after mice were randomized and divided into groups. The tide compound (0.375 mg/kg; 0.75 mg/kg; 1.5 mg/kg or 3 mg/kg), irinotecan (80 mg/kg) and each vehicles were administered intravenously. Tumor volume and body weight of each mouse were measured twice a week. […] Tumor growth inhibition was calculated by using the equation (1-ΔT/ΔC)×100, where ΔT represents the tumor volume difference from the initial treatment date of treated group and ΔC represents the tumor volume difference from the initial treatment date of vehicle group.

With `CCCCCOC(=O)Nc1nc(=O)n([C@@H]2O[C@H](C)[C@@H](O)[C@H]2O)cc1F` [capecitabine, reference compound] the MTD at 14 days ([1]; 359 mg/kg) was 359 mg/kg, the MTD at 14 days [1] was 539 mg/kg and the “reduction of tumor growth” value ([2]; 359 mg/kg (2/3 MTD) p.o. daily for 14 days) was 32%. The “reduction of tumor growth” value ([2]; 539 mg/kg (MTD) p.o. daily for 14 days) was 50%.

With `N.N.[Cl][Pt][Cl]` [CDDP, cis-diamminedichloroplatinum, reference compound] the “reduction of tumor growth” value ([3]; 5 mg/kg (1/2 MTD) i.v. on first day) was 56% and the “reduction of tumor growth” value ([3]; 6.7 mg/kg (2/3 MTD) i.v. on first day) was 66%.

In the case of `CCc1c2c(nc3ccc(OC(=O)N4CCC(N5CCCCC5)CC4)cc13)-c1cc3c(c(=O)n1C2)COC(=O)[C@]3(O)CC` [irinotecan, irinotecan hydrochloride, reference compound], the tumor growth inhibition [4] is reported as 68% and the MTD [1] is reported as 120 mg/kg.
